Bridge positions count the residues as written; N and C are the ends. Square brackets hold non-standard residues; d marks the D form. Peptide text beside a SMILES is read from it. I, II: the chains in the order shown. * marks the point of attachment. Quinaldoyl(3-OH) = O=C(c1nc2ccccc2cc1O)*; NMeC = CN[C@@H](CS)C(=O)O
Legend:
Assay type in all cases: functional
[1] = test system: HT-29; assay: Cytotoxicity against human HT29 cells after 72 hrs by SRB assay; details: HT-29, 72 h
[2] = test system: SK-BR-3; assay: Cytotoxicity against human SK-BR3 cells after 72 hrs by SRB assay; details: SK-BR-3, 72 h
[3] = test system: PANC-1; assay: Cytotoxicity against human PANC1 cells after 72 hrs by SRB assay; details: PANC-1, 72 h
[4] = test system: HeLa; assay: Cytotoxicity against human HeLa cells after 72 hrs by SRB assay
[5] = test system: DU-145; assay: Cytotoxicity against human DU145 cells after 72 hrs by SRB assay; details: DU-145, 72 h
[6] = Cytotoxicity against human IGROV cells after 72 hrs by SRB assay
[7] = test system: LoVo; assay: Cytotoxicity against doxorubicin resistant human LoVo cells after 72 hrs by SRB assay
[8] = test system: K562; assay: Cytotoxicity against human K562 cells after 72 hrs by SRB assay; details: K562, 72 h
[9] = test system: LoVo; assay: Cytotoxicity against human LoVo cells after 72 hrs by SRB assay
[10] = test system: LNCaP; assay: Cytotoxicity against human LNCaP cells after 72 hrs by SRB assay
[11] = test system: SK-MEL-28; assay: Cytotoxicity against human SK-MEL-28 cells after 72 hrs by SRB assay; details: SK-MEL-28, 72 h
[12] = test system: A549; assay: Cytotoxicity against human A549 cells after 72 hrs by SRB assay; details: A549, 72 h
[13] = read-out: LC50 (the source's name)

CSC[C@H]1C(=O)SC[C@@H](NC(=O)c2nc3ccccc3cc2O)C(=O)NCC(=O)N(C)[C@H]2CSSC[C@@H](C(=O)N1C)N(C)C(=O)CNC(=O)[C@H](NC(=O)c1nc3ccccc3cc1O)CSC(=O)[C@H](CSC)N(C)C2=O [THIOCORALINE A] (I: {Quinaldoyl(3-OH)}-[dC]G[NMeC][NMeC](Me) / II: {Quinaldoyl(3-OH)}-[dC]G[NMeC][NMeC](Me); thioester I:1-II:C, I:C-II:1; disulfide I:3-II:3)
GI50 [1]: 3.9 nM | TGI [1]: 73.6 nM | CC50 [1, 13]: 6290 nM | GI50 [2]: 2.2 nM | TGI [2]: 8.9 nM | CC50 [2, 13]: 30.8 nM | GI50 [3]: 2.5 nM | TGI [3]: 82.5 nM | CC50 [3, 13]: 378 nM | GI50 [4]: 1.3 nM | TGI [4]: 4.7 nM | CC50 [4, 13]: 22.6 nM | GI50 [5]: 1.9 nM | TGI [5]: 6.4 nM | CC50 [5, 13]: 1480 nM | GI50 [6]: 1.9 nM | TGI [6]: 11.1 nM | CC50 [6, 13]: 1260 nM | GI50 [7]: 212 nM | TGI [7]: 2380 nM | GI50 [8]: 1.3 nM | TGI [8]: 4.6 nM | CC50 [8, 13]: 9.2 nM | GI50 [9]: 7.2 nM | TGI [9]: 263 nM | CC50 [9, 13]: 284 nM | GI50 [10]: 3 nM | TGI [10]: 5 nM | CC50 [10, 13]: 14.2 nM | GI50 [11]: 3 nM | TGI [11]: 14 nM | CC50 [11, 13]: 50.3 nM | GI50 [12]: 4.8 nM | TGI [12]: 19.3 nM | CC50 [12, 13]: 95.6 nM
